Data as given in article PMC11247486, “Improving the In Vivo Stability of [^52Mn]Mn(II) Complexes with 18-Membered Macrocyclic Chelators for PET Imaging” (Journal of Medicinal Chemistry, 2024).

Legend:
[1] = Transmetalation (dissociation) kinetics of the Mn(II) complexes with Cu2+; type: physicochemical
Procedure: There is a wide consensus among the coordination chemistry community that kinetic inertness is more important for the safe use of metal complexes for imaging applications than thermodynamic stability.[8],[49],[50] Thus, we conducted a detailed investigation of the transmetalation kinetics of the Mn-PYAN and Mn-CHXPYAN complexes, by following their exchange reactions with Cu^2+ in the pH range of 2.5–4.5 (eq 3). [drawing 3] 3
All reactions were carried out in the presence of a large excess of Cu^2+ in order to guarantee the pseudo-first-order kinetic conditions. The transmetalation of Mn-PYAN in the pH range ∼2.0–4.5 is very fast, and thus the rates of the reactions were measured using the stopped-flow technique. Conversely, the exchange reactions of the Mn-CHXPYAN complex are slow and could be studied by using conventional methods. The transmetalation reactions of Mn-PYAN and Mn-CHXPYAN were monitored by following the formation of the corresponding Cu(II) complexes at 295 nm.
The kd values increase upon increase in [H^+] and are independent of the concentration of Cu^2+ as it was found for Mn-PCTA, Mn-PC3AM, and Mn-bispidine complexes.[49],[51] […] The increase in the kd values with increasing H^+ concentration can be interpreted in terms of the extremely slow spontaneous (k0, eq 4) and the proton-assisted (k*[Mn(HL), eq 6) dissociation of Mn(II) complexes. The saturation behavior of the plots of kd versus [H^+] (Figure 5) is characteristic for the equilibrium formation and the accumulation of the *[Mn(HL)] intermediate characterized by the *KH protonation constant (eq 5). The analysis of the rate constants obtained for Mn-CHXPYAN indicates a second-order dependence of kd on [H^+], which can be explained by the proton-assisted dissociation of the *[Mn(HL)] intermediate (k^H*[Mn(HL)], eq 7). [drawing 4] 4 [drawing 5] 5 [drawing 6] 6 [drawing 7] 7
In the presence of excess of the exchanging ion, the transmetalation can be treated as a pseudo-first-order process, and the rate of reactions can be expressed with eq 8, where kd is a pseudo-first-order rate constant and [MnL]t is the total concentration of the complex. [drawing 8] 8
Through consideration of all the possible pathways, the rate of the transmetalation of Mn-PYAN and Mn-CHXPYAN with Cu^2+ can be expressed by eq 9 [drawing 9] 9 Considering the total concentration of the Mn(II) complex ([MnL]t = [MnL] + [*Mn(HL)], as well as the equation defining the protonation constant for the formation of the *[Mn(HL)] intermediate (eq 5) and eq 8, the pseudo-first-order rate constant can be expressed as follows [drawing 10] 10 where k1 = k*[Mn(HL)] × *KH and k2 = k^H*[Mn(HL)] × *KH. The rate and protonation constants characterizing the transmetalation of Mn-PYAN and Mn-CHXPYAN with Cu^2+ have been calculated by fitting the kd values presented in Figure 5 to eq 10 and the values obtained are compared with the corresponding values of Mn-DOTA, Mn-DO3A, Mn-PCTA, Mn-PC3AM^H, and Mn-bispidine in Table 3.
Rates of the metal exchange reactions of Mn-PYAN and Mn-CHXPYAN with Cu^2+ were measured by spectrophotometry by following the formation of the related Cu(II) complexes at 295 nm with an Applied Photophysics DX-17MV stopped-flow instrument and PerkinElmer Lambda 365 UV–vis spectrophotometer using 1.0 cm cells, respectively. The concentration of Mn-PYAN and Mn-CHXPYAN was 1.0 × 10^–4 M, whereas the concentration of Cu^2+ was 10 and 20 times higher in order to guarantee pseudo-first-order conditions. The temperature was maintained at 25 °C and the ionic strength of the solutions was kept constant with 0.15 M NaCl. The exchange rates were studied in the pH range of ca. 2.0–4.5. To keep the pH values constant, monochloroacetic acid (pH range 2.0–3.3), 1,4-dimethylpiperazine (pH range 3.3–4.1), and N-methylpiperazine (pH range 4.1–4.5) buffers were used (0.01 M). […]

[2] = protonation constant of the complex, KMnLH = [MnHL]/[MnL] × [H^+]; cited from earlier work

Row | t1/2 at pH = 7.4 ([1]; dissociation half-life of the Mn(II) complex, 0.15 M NaCl, 25 °C) | Structure (SMILES) | acid-catalyzed dissociation rate kd ([1]; pH = 5.5, 25 °C) | t1/2 ([1]; pH = 5.5, 25 °C) | k1 lower than that determined for Mn-PYAN ([1]; ratio of k1 values) | log KMnLH [2]
1 | – | [Mn+2].c1cc2nc(c1)CN[C@@H]1CCCC[C@H]1NCc1cccc(n1)CN[C@@H]1CCCC[C@H]1NC2 [Mn-CHXPYAN] | 7.9 × 10^–7 s^–1 | 240 h | 3600 times | –
2 | 5.85 h | [Mn+2].c1cc2nc(c1)CNCCNCc1cccc(n1)CNCCNC2 [Mn-PYAN] | – | – | – | 5.19
